Measured values as given in patent US11591632B2, “Genetically-mutated bacterial strain for detecting estrogenic compound and method for detecting estrogenic compound using the same” (INDUSTRY-UNIVERSITY COOPERATION FOUNDATION HANYANG …, priority 2016, dated 2023).

Columns and labels:
hERα LBD [1] = molecular target: T1, hERα LBD (Homo sapiens, UniProt P03372); assay type: cell-based; conditions: E. coli FW102 OL2-62 pACλCI::RIP140-FLAG pBRαNTD::hERα LBD-FLAG, 20 μM IPTG, 30 minutes incubation
T1 construct: hERα LBD (N304-T553: amino acid 304, asparagine, through amino acid 553, threonine); expressed in transfected cells; host or cells: E. coli FW102 OL2-62
Description: (§1) Afterward, estrogens and EDCs were added at corresponding concentrations, and the cells were further incubated for 30 minutes. Subsequently, 800 μL of the cells were harvested, and resuspended in 800 μL of a buffer solution (60 mM of Na2HPO4, 40 mM of NaH2PO4, 10 mM of KCl, 1 mM of MgSO47H2O, 400 μM of dithiothreitol), followed by measuring OD600 (cell content). Afterward, the cells were lysed by ultrasonication and treated with 160 μL of 4 mg/mL ONPG, and thus a time to change a color of the specimen into yellow was recorded. When the color of the specimen changed to yellow, the reaction was stopped with 400 μL of 1M Na2CO3.

hERα LBD [2] = conditions: LE7197, lacZ expression in Miller units, with IPTG, 30 minutes incubation
Description: as §1, with “The E. coli FW102 OL2-62 pACλCI::TIF2 BD-FLAG pBRαNTD::hERα LBD-FLAG strain was inoculated, and cultured up to OD600˜ 0.4 (20 μM IPTG added; the inducible substance for inducing expression of λCI-TIF2 BD-FLAG and αNTD-hERα LBD-FLAG). Afterward, estrogens” for “Afterward, estrogens”
Afterward, through β-galactosidase analysis, the expression of a reporter gene, the lacZ gene, was expressed in terms of Miller units.

T1 sequence (P03372 304-553): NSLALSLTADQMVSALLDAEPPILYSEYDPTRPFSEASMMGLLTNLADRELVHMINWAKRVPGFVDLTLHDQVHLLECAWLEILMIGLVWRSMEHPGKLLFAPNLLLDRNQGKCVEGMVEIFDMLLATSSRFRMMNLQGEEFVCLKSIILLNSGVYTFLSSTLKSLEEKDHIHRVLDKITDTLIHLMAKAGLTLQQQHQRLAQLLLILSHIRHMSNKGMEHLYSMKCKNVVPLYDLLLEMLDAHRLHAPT
T1 sequence (P48552 whole entry partner, the tested form may be a part): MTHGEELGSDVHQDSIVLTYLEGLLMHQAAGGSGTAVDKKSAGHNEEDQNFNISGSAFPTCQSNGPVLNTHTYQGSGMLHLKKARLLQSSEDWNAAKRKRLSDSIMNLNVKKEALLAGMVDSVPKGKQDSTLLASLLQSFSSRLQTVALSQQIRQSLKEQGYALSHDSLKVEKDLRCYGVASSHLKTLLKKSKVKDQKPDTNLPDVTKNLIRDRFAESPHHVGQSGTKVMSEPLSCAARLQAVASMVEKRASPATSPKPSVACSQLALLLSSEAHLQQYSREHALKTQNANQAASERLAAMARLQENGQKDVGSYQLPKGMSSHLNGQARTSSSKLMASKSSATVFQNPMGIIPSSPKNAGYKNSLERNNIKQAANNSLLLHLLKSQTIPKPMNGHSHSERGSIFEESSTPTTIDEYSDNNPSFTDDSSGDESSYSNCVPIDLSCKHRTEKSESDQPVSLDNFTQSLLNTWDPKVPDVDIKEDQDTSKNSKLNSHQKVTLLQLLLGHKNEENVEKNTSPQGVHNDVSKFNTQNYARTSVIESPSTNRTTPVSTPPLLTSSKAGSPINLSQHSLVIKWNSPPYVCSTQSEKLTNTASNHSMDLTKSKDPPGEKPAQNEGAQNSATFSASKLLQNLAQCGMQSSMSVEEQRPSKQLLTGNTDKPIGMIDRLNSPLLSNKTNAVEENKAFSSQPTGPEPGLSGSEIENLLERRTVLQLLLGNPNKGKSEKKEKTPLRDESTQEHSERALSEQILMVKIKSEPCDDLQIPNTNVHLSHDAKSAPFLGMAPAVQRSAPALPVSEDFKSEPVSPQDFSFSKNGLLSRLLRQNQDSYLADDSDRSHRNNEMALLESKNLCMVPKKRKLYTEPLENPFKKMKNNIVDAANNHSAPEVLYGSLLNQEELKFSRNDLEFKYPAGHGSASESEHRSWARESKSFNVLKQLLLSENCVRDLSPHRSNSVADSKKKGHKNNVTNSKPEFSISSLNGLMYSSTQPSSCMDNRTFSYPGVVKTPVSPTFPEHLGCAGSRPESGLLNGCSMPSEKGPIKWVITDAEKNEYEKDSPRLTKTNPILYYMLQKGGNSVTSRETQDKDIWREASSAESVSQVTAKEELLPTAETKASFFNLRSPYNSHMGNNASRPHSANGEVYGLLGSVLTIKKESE
T1 sequence (P0A7Z4 1-248 partner limits assumed): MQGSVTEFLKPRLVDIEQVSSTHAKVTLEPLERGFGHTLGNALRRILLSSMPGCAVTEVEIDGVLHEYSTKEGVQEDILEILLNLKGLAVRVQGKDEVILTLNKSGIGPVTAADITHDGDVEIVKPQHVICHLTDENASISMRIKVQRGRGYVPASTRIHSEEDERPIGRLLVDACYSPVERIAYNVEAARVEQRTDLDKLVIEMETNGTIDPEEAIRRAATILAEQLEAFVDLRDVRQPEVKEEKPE
T1 sequence (P03034 whole entry partner, the tested form may be a part): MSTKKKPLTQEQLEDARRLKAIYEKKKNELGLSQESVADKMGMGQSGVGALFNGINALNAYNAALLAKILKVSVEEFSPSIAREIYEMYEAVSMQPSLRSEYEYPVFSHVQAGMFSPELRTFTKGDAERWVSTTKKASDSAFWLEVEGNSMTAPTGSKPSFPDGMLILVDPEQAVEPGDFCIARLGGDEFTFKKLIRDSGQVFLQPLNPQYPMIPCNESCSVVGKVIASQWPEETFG

Compound | Miller units as a function of compound concentration in the specimen (hERα LBD [1]) | concentration that can be sensed/detected by sensor strain (hERα LBD [2])
CC(C)(c1ccc(O)cc1)c1ccc(O)cc1 [bisphenol A] | the higher the Miller units | –
Oc1ccc(Cc2ccc(O)cc2)cc1 [bisphenol F] | – | several hundred
O=S(=O)(c1ccc(O)cc1)c1ccc(O)cc1 [bisphenol S] | – | several hundred
nonylphenol | the higher the Miller units | approximately 100 nM
